Measurements taken from publication PMC2952696 (Bioorganic & medicinal chemistry letters, 2010).

Assays:
Type in all cases: biochemical
[1] = target: rat nNOS (Rattus norvegicus, UniProt P29476); assay: NOS inhibition assay, rat nNOS; details: for selectivity n/e: rat nNOS over bovine eNOS; for selectivity n/i: rat nNOS over murine iNOS
[2] = target: human nNOS (Homo sapiens, UniProt P29475); assay: NOS inhibition assay, human nNOS; details: human nNOS vs rat nNOS
[3] = target: bovine eNOS (Bos taurus, UniProt P29473); assay: NOS inhibition assay, bovine eNOS; details: 2a vs 1

Row | SMILES | lower potency for rat nNOS compared to 2a ([1]; 2b vs 2a) [fold] | selectivity n/e [1] | selectivity n/i [1] | drop of selectivity (Ki-human/Ki-rat) compared to 1 [2] [fold] | drop of selectivity for rat nNOS over bovine eNOS compared to 1 ([1]; 2a vs 1) [fold] | impaired potency for rat nNOS compared to 1 ([1]; 2a vs 1, removal of 4-methyl group) [fold] | difference in eNOS potency compared to 1 [3] [fold]
1 | Nc1cccc(C[C@H]2CNC[C@H]2OCCNCCc2cccc(F)c2)n1 [Compound 2b] | 4 | 270 | 60 |  |  |  | 
2 | N=C1CCCC(C[C@@H]2CNC[C@@H]2OCCNCCc2cccc(F)c2)N1 (stereo partly drawn) [Compound 3] |  | 530 | 200 | 1.6 |  |  | 
3 | Nc1cccc(C[C@@H]2CNC[C@@H]2OCCNCCc2cccc(F)c2)n1 [Compound 2a] |  | 1,200 | 200 | 1.2 | 2.3 | 7 | 3
